Literature values, collected in US20100158905A1, “COMBINATION THERAPY OF ARTHRITIS WITH TRANILAST” (NUON THERAPEUTICS, INC., priority 2008, published 2010).

System: rheumatoid arthritis
Conditions: usual maintenance dose

| Compound | Approximate time to benefit |
| --- | --- |
| CCN(CCO)CCCC(C)Nc1ccnc2cc(Cl)ccc12 (stereo not shown) [Hydroxychloroquine] | 2-6 months |
| Cn1cnc([N+](=O)[O-])c1Sc1ncnc2nc[nH]c12 [Azathioprine] | 2-3 months |
| Cc1oncc1C(=O)Nc1ccc(C(F)(F)F)cc1 [Leflunomide] | 4-12 weeks (skewed earlier) |
| O=C(O)c1cc(/N=N/c2ccc(S(=O)(=O)Nc3ccccn3)cc2)ccc1O [Sulfasalazine] | 1-3 months |
| CN(Cc1cnc2nc(N)nc(N)c2n1)c1ccc(C(=O)N[C@@H](CCC(=O)O)C(=O)O)cc1 [Methotrexate] | 1-2 months |
| Etanercept | A few days to 12 weeks |
| CC(C)(S)[C@@H](N)C(=O)O [D-penicillamine] | 3-6 months |

System: RA
Conditions: used in combination with methotrexate

| Compound | improvements in treating RA |
| --- | --- |
| infliximab: tumor necrosis factor (TNF) antagonist | marked improvements |
| Etanercept | marked improvements |
| Adalimumab | marked improvements |
